Source: the CheMixHub ionic liquid set

Test: xn = mol fraction of the nth substance listed
Conditions: 101 kPa

CCCCCCCCCCCCCCCC[n+]1ccccc1.O=C([O-])C(O)c1ccccc1 + C[C@H](N)C(=O)O + O
electrical conductivity [S/m]
Conditions | 293.15 K | 298.15 K | 303.15 K | 308.15 K | 313.15 K
x1 = 1.08e-06, x2 = 0 | 0.00061 | 0.00068 | 0.00076 | 0.00083 | 0.0009
x1 = 1.09e-06, x2 = 0.0009002 | 0.0006 | 0.00069 | 0.00077 | 0.00087 | 0.00098
x1 = 1.09e-06, x2 = 0.001799 | 0.00068 | 0.00078 | 0.00088 | 0.001 | 0.0011
x1 = 1.98e-06, x2 = 0 | 0.001 | 0.0012 | 0.0013 | 0.0014 | 0.0016
x1 = 2.17e-06, x2 = 0.0009002 | 0.00107 | 0.00122 | 0.0014 | 0.0015 | 0.0017
x1 = 2.18e-06, x2 = 0.001799 | 0.00104 | 0.0012 | 0.00135 | 0.0015 | 0.0017
x1 = 2.88e-06, x2 = 0 | 0.00147 | 0.0016 | 0.0018 | 0.002 | 0.0022
x1 = 3.26e-06, x2 = 0.0009002 | 0.0015 | 0.0017 | 0.0019 | 0.0021 | 0.0024
x1 = 3.45e-06, x2 = 0.001799 | 0.00147 | 0.00167 | 0.00187 | 0.0021 | 0.0024
x1 = 3.96e-06, x2 = 0 | 0.0019 | 0.0022 | 0.0024 | 0.0026 | 0.0029
x1 = 4.52e-06, x2 = 0.0009002 | 0.00197 | 0.0022 | 0.0025 | 0.0028 | 0.0031
x1 = 4.54e-06, x2 = 0.001799 | 0.0019 | 0.00216 | 0.0024 | 0.0027 | 0.003
x1 = 4.69e-06, x2 = 0 | 0.0023 | 0.0026 | 0.0029 | 0.0031 | 0.0035
x1 = 5.61e-06, x2 = 0.0009002 | 0.00243 | 0.00275 | 0.0031 | 0.0034 | 0.0038
x1 = 5.81e-06, x2 = 0.001799 | 0.00234 | 0.00265 | 0.0029 | 0.0033 | 0.0036
x1 = 5.95e-06, x2 = 0 | 0.00281 | 0.0032 | 0.0035 | 0.0038 | 0.0042
x1 = 6.87e-06, x2 = 0.0009002 | 0.00295 | 0.0033 | 0.0037 | 0.0041 | 0.0045
x1 = 7.21e-06, x2 = 0 | 0.00341 | 0.0038 | 0.0042 | 0.0046 | 0.0051
x1 = 7.26e-06, x2 = 0.001799 | 0.00287 | 0.00323 | 0.0036 | 0.004 | 0.0044
x1 = 8.32e-06, x2 = 0.0009002 | 0.00346 | 0.00391 | 0.0043 | 0.0048 | 0.0053
x1 = 8.71e-06, x2 = 0.001799 | 0.00335 | 0.00379 | 0.00423 | 0.0047 | 0.0052
x1 = 8.83e-06, x2 = 0 | 0.00406 | 0.0046 | 0.005 | 0.0055 | 0.006
x1 = 9.58e-06, x2 = 0.0009002 | 0.00394 | 0.00445 | 0.00497 | 0.0055 | 0.0061
x1 = 1.045e-05, x2 = 0 | 0.00469 | 0.0053 | 0.0058 | 0.0065 | 0.0071
x1 = 1.071e-05, x2 = 0.001799 | 0.0039 | 0.00441 | 0.00494 | 0.0055 | 0.0061
x1 = 1.121e-05, x2 = 0.0009002 | 0.00434 | 0.00493 | 0.00552 | 0.0062 | 0.0069
x1 = 1.207e-05, x2 = 0 | 0.00516 | 0.0058 | 0.0064 | 0.0071 | 0.0079
x1 = 1.216e-05, x2 = 0.001799 | 0.00419 | 0.00476 | 0.00533 | 0.00596 | 0.0067
x1 = 1.284e-05, x2 = 0.0009002 | 0.00475 | 0.0054 | 0.006 | 0.0067 | 0.0075
x1 = 1.351e-05, x2 = 0 | 0.00562 | 0.00631 | 0.007 | 0.0077 | 0.0085
x1 = 1.361e-05, x2 = 0.001799 | 0.00459 | 0.0052 | 0.00583 | 0.00654 | 0.0073
x1 = 1.411e-05, x2 = 0.0009002 | 0.00513 | 0.0058 | 0.00649 | 0.0072 | 0.0081
x1 = 1.478e-05, x2 = 0 | 0.00603 | 0.0068 | 0.0075 | 0.0083 | 0.0092
x1 = 1.506e-05, x2 = 0.001799 | 0.00495 | 0.00559 | 0.00626 | 0.007 | 0.0079
x1 = 1.519e-05, x2 = 0.0009002 | 0.00545 | 0.00616 | 0.0069 | 0.0077 | 0.0085
x1 = 1.622e-05, x2 = 0 | 0.00644 | 0.0072 | 0.008 | 0.0089 | 0.0098
x1 = 1.646e-05, x2 = 0.0009002 | 0.00578 | 0.00652 | 0.0073 | 0.0081 | 0.009
x1 = 1.651e-05, x2 = 0.001799 | 0.00526 | 0.00598 | 0.00669 | 0.0075 | 0.0083
x1 = 1.766e-05, x2 = 0 | 0.00687 | 0.0077 | 0.0085 | 0.0094 | 0.0104
x1 = 1.778e-05, x2 = 0.001799 | 0.00557 | 0.00629 | 0.00707 | 0.0079 | 0.0088

O=[N+]([O-])[O-].[Li+] + CC[n+]1ccn(C)c1.O=S(=O)([O-])C(F)(F)F
electrical conductivity [S/m]
Conditions | x2 = 0.8748 | x2 = 0.9165 | x2 = 0.9576 | x2 = 0.9746
288.15 K | 0.38 | 0.454 | 0.563 | 0.562
298.15 K | 0.587 | 0.68 | 0.818 | 0.816
333.15 K | 1.69 | 1.85 | 2.07 | 2.1
